pIC50: −log10 of the molar value. Where a name gives a salt, the structure may show the parent alone.
Each compound was assayed against T1, ACC1 from rat liver (Rattus norvegicus, UniProt P11497) (assay: Direct inhibition of ACC1 activity (14C-bicarbonate incorporation)). Conditions: ACC1 from rat liver.
T1 construct: The livers (for ACC1 preparation) or skeletal muscle tissue (for ACC2 preparation) are removed; from tissue; host or cells: liver of male CD rats (fasted, then fed a high sucrose diet)
Assay type: biochemical
Description: [1] Preparation of ACC1 and ACC2.
Male CD rats weighing 150-200 g are fasted for 2 days and then fed a high sucrose diet (AIN-76A rodent diet; Cat # D10001, Research Diets Inc., New Brunswick, N.J.), for 3 days at which time they are sacrificed by CO2 asphyxiation. The livers (for ACC1 preparation) or skeletal muscle tissue (for ACC2 preparation) are removed, rinsed in ice-cold phosphate-buffered saline (PBS), and homogenized in 5 volumes of homogenization buffer (50 mM potassium phosphate, pH 7.5, 10 mM EDTA, 10 mM 2-mercaptoethanol, 2 mM benzamidine, 0.2 mM phenylmethylsulfonylfluoride (PMSF), 5 mg/L each leupeptin, aprotinin, and antitrypsin) in a Waring® blender for 1 minute at 4° C. All subsequent operations are carried out at 4° C. The homogenate is made 3% with respect to polyethylene glycol (PEG) by the addition of 50% PEG solution and centrifuged at 20,000×g for 15 minutes. The resulting supernatant is adjusted to 5% PEG with the addition of 50% PEG solution and stirred for 5 minutes. The pellet (contains ACC activity) is collected by centrifugation at 20,000×g for 20 minutes, rinsed with Ice-cold doubly distilled water to remove excess PEG and re-suspended in one-fourth the original homogenate volume with homogenization buffer. Ammonium sulfate (200 g/liter) is slowly added with stirring. After 45 minutes the enzyme is collected by centrifugation for 30 minutes at 20,000×g, re-suspended in 10 ml of 50 mM HEPES, pH7.5, 0.1 mM DTT, 1.0 mM EDTA, and 10% glycerol and desalted on a Sephadex™ G-25 column (2.5 cm-x 50 cm) (Pharmacia, Piscataway N.J. now GE Healthcare) […] equilibrated with the same buffer. The desalted enzyme preparation is stored in aliquots at −70° C. Immediately prior to use, frozen ACC1 or ACC2 aliquots are thawed, diluted to 500 μg/ml in buffer containing 50 mM HEPES, pH7.5, 1.0 mM MgCl2, 10 mM tripotassium citrate, 2.0 mM dithiothreitol (DTT), and 0.75 mg/ml fatty acid-free bovine serum albumin (BSA) and pre-incubated at 37° C. for 30 minutes.
[2] Measurement of ACC inhibition. The procedures for measuring ACC1 inhibition and ACC2 inhibition are identical except for the source of the isozyme. For measurement of ACC activity and assessment of ACC inhibition, test compounds are dissolved in dimethylsulfoxide (DMSO) and 1 μL aliquots are placed in 0.5 ml polypropylene tubes. Control tubes contain 1 μL of DMSO alone. Tubes are incubated at 37° C. in a constant temperature water bath. […] The reaction is then initiated by the addition of 10 μL of preincubated ACC fraction prepared as described above. After 7 minutes the reaction is terminated by the addition of 50 μL of 6N HCl and a 150 μL aliquot of the reaction mixture is transferred to glass scintillation vials and evaporated to dryness at 90° C. for at least 1 hour. The dried vials are then cooled, 0.5 ml of water and 5.5 ml of Ready Safe liquid scintillation fluid (Beckman Coulter Inc., Fullerton, Calif.) are added, and the radioactivity is determined using a liquid scintillation counter. Tubes that received HCl before ACC served as blanks.

pIC50 | SMILES
6.68 | O=C1CC2(CCN(C(=O)c3cc(Cl)c4[nH]ncc4c3)CC2)Oc2cc(Cl)c(F)cc21 [Ex. B10, 7-chloro-1′-[(7-chloro-1H-indazol-5-yl)carbonyl]-6-fluorospiro[chromene-2,4′-piperidin]-4(3H)-one]
6.97 | Cc1cc2c(cc1Cl)C(=O)CC1(CCN(C(=O)c3ccc4c(C)n[nH]c4c3)CC1)O2 [Ex. F3, 6-chloro-7-methyl-1′-[(3-methyl-1H-indazol-6-yl)carbonyl]spiro[chromene-2,4′-piperidin]-4(3H)-one]

The next lines start with the compound.

SMILES | pIC50
Cc1cc2c(cc1C)C(=O)CC1(CCN(C(=O)c3ccc4[nH]c5c(c4c3)CCNC5=O)CC1)O2 [Ex. K1, 6,7-dimethyl-1′-[(1-oxo-2,3,4,9-tetrahydro-1H-beta-carbolin-6-yl)carbonyl]spiro[chromene-2,4′-piperidin]-4(3H)-one] | 8.00
Cc1cc2c(cc1C)C(=O)CC1(CCN(C(=O)c3ccc4nn(C)cc4c3)CC1)O2 [Ex. J3, 6,7-dimethyl-1′-[(2-methyl-2H-indazolyl)carbonyl]spiro[chromene-2,4-piperidin]-4(3H)-one] | 6.45
CC(C)c1ccc2c(c1)C(=O)CC1(CCN(C(=O)c3cccc4cn[nH]c34)CC1)O2 [Ex. H10, 1′-(1H-indazol-7-ylcarbonyl)-6-isopropylspiro[chromene-2,4-piperidin]-4(3H)-one] | 6.16
COc1cccc2c1C(=O)CC1(CCN(C(=O)c3ccc4nc(-c5ccccc5)[nH]c4c3)CC1)O2 [Ex. L35, 5-methoxy-1′-[(2-phenyl-1H-benzimidazol-6-yl)-carbonyl]spiro[chromene-2,4′-piperidin]-4(3H)-one] | 7.81
Cc1cc2c(cc1Cl)C(=O)CC1(CCN(C(=O)c3ccc4ocnc4c3)CC1)O2 [Ex. L46, 1′-(1,3-benzoxazol-5-ylcarbonyl)-6-chloro-7-methylspiro[chromene-2,4′-piperidin]-4(3H)-one] | 6.43
CCc1nn(C)c2cc(C(=O)N3CCC4(CC3)CC(=O)c3cc(C)c(C)cc3O4)ccc12 [Ex. G4, 1′-[(3-ethyl-1-methyl-1H-indazol-6-yl)carbonyl]-6,7-dimethylspiro[chromene-2,4′-piperidin]-4(3H)-one] | 7.10
O=C1CC2(CCN(C(=O)c3ccc4[nH]c5c(c4c3)CCNC5=O)CC2)Oc2ccc(Cl)cc21 [Ex. K3, 6-chloro-1′-[(1-oxo-2,3,4,9-tetrahydro-1H-beta-carbolin-6-yl)carbonyl]spiro[chromene-2,4′-piperidin]-4(3H)-one] | 6.97
Cc1cc(C)c2c(c1)OC1(CCN(C(=O)c3cc(C)c4[nH]ncc4c3)CC1)CC2=O [Ex. A29, 5,7-dimethyl-1′-[(7-methyl-1H-indazol-5-yl)carbonyl]spiro[chromene-2,4′-piperidin]-4(3H)-one] | 6.84
Cc1cc2c(cc1C)C(=O)CC1(CCN(C(=O)c3ccc4[nH]nnc4c3)CC1)O2 [Ex. L37, 1′-(1H-1,2,3-benzotriazol-5-ylcarbonyl)-6,7-dimethylspiro[chromene-2,4′-piperidin]-4(3H)-one] | 6.82
Cc1ccc2c(c1)C(=O)CC1(CCN(C(=O)c3cc(C)c4[nH]ncc4c3)CC1)O2 [Ex. A15, 6-methyl-1′-[(7-methyl-1H-indazol-5-yl)carbonyl]spiro[chromene-2,4′-piperidin]-4(3H)-one] | 7.27
COc1cc(C)c2c(c1)OC1(CCN(C(=O)c3cc(C)c4[nH]ncc4c3)CC1)CC2=O [Ex. A28, 7-methoxy-5-methyl-1′-[(7-methyl-1H-indazol-5-yl)carbonyl]spiro[chromene-2,4′-piperidin]-4(3H)-one] | 6.86
COc1ccc2c(c1F)C(=O)CC1(CCN(C(=O)c3cc(Cl)c4[nH]ncc4c3)CC1)O2 [Ex. B11] | 6.66
Cc1cc2c(c(C)c1Cl)C(=O)CC1(CCN(C(=O)c3cc(C)c4[nH]ncc4c3)CC1)O2 [Ex. A18, 6-chloro-5,7-dimethyl-1′-[(7-methyl-1H-indazol-5-yl)carbonyl]spiro[chromene-2,4′-piperidin]-4(3H)-one] | 7.14
COc1cc(Cl)c2c(c1)OC1(CCN(C(=O)c3cc(C)c4[nH]ncc4c3)CC1)CC2=O [Ex. A6, 5-chloro-7-methoxy-1′-[(7-methyl-1H-indazol-5-yl)carbonyl]spiro[chromene-2,4′-piperidin]-4(3H)-one] | 7.50
O=C1CC2(CCN(C(=O)c3cccc4cn[nH]c34)CC2)Oc2ccccc21 | 5.45
Cc1cc2c(cc1C)C(=O)CC1(CCN(C(=O)c3ccc4[nH]c(-c5ccccn5)nc4c3)CC1)O2 [Ex. L26, 6,7-dimethyl-1′-[(2-pyridin-2-yl-1H-benzimidazol-5-yl)carbonyl]spiro[chromene-2,4′-piperidin]-4(3H)-one trifluoroacetic acid salt] | 7.20
Cc1cc2c(cc1C)C(=O)CC1(CCN(C(=O)c3cccc4c3ccn4C)CC1)O2 [Ex. L15, 6,7-dimethyl-1′-[(1-methyl-1H-indol-4-yl)carbonyl]spiro[chromene-2,4′-piperidin]-4(3H)-one] | 6.38
Cc1cc2c(cc1C)C(=O)CC1(CCN(C(=O)c3cc(C)c4[nH]ncc4c3)CC1)O2 [Ex. A2, 6,7-dimethyl-1′-[(7-methyl-1H-indazol-5-yl)carbonyl]spiro-[chromene-2,4′-piperidin]-4(3H)-one trifluoroacetic acid salt] | 7.52

Same assay, conditions: Table of Examples M1-M36

pIC50 | SMILES
6.36 | CS(=O)(=O)c1ccc2c(c1)C(=O)CC1(CCN(C(=O)c3cccc(-c4cc[nH]n4)c3)CC1)O2 [M20, 6-(methylsulfonyl)-1′-[3-(1H-pyrazol-3-yl)benzoyl]spiro[chromene-2,4′-piperidin]-4(3H)-one]
6.46 | CC(C)NC(=O)c1ccc2c(c1)C(=O)CC1(CCN(C(=O)c3cccc(-c4cc[nH]n4)c3)CC1)O2 [Ex. M17, N-isopropyl-4-oxo-1′-[3-(1H-pyrazol-3-yl)benzoyl]3,4-dihydrospiro[chromene-2,4′-piperidine]-6-carboxamide]
5.70 | O=C1CC2(CCN(C(=O)c3cccc(-c4cc[nH]n4)c3)CC2)Oc2cc(Cl)c(F)cc21 [Ex. M36, 7-chloro-6-fluoro-1-[3-(1H-pyrazol-3-yl)benzoyl]spiro[chromene-2,4′-piperidin]-4(3H)-one]
6.75 | O=C1CC2(CCN(C(=O)c3cccc(-c4cc[nH]n4)c3)CC2)Oc2cc(Cl)c(Cl)cc21 [Ex. M8, 6,7-dichloro-1′-[3-(1H-pyrazol-3-yl)benzoyl]spiro[chromene-2,4′-piperidin]-4(3H)-one]
6.50 | O=C1CC2(CCN(C(=O)c3cccc(-c4cc[nH]n4)c3)CC2)Oc2cc(Cl)cc(Cl)c21 [Ex. M16, 5,7-dichloro-1′-[3-(1H-pyrazol-3-yl)benzoyl]spiro[chromene-2,4′-piperidin]-4(3H)-one]
5.85 | O=C1CC2(CCN(C(=O)c3cccc(-c4cc[nH]n4)c3)CC2)Oc2c(Cl)cc(Cl)cc21 [Ex. M35, 6,8-dichloro-1′-[3-(1H-pyrazol-3-yl)benzoyl]spiro[chromene-2,4′-piperidin]-4(3H)-one]
6.32 | Cc1ccc2c(c1)C(=O)CC1(CCN(C(=O)c3cccc(-c4cc[nH]n4)c3)CC1)O2 [Ex. M23, 6-methyl-1′-[3-(1H-pyrazol-3-yl)benzoyl]spiro[chromene-2,4′-piperidin]-4(3H)-one]

Same assay, conditions: Table of Examples O1-O4

pIC50 | SMILES
7.26 | COc1cc(Cl)c2c(c1)OC1(CCN(C(=O)c3cccc(-c4ccn[nH]4)c3)CC1)CC2=O [Ex. O2, 5-chloro-7-methoxy-1′-[3-(1H-pyrazol-5-yl)benzoyl]spiro[chromene-2,4′-piperidin]-4(3H)-one]

Same assay, conditions: Table of Examples P1-P15

pIC50 | SMILES
> 5.52 | Cc1cc2c(cc1C)C(=O)CC1(CCN(C(=O)c3cc(-c4cc[nH]n4)ccc3Cl)CC1)O2 [Ex. P5, 1′-[2-chloro-5-(1H-pyrazol-3-yl)benzoyl]-6,7-dimethylspiro[chromene-2,4′-piperidin]-4(3H)-one trifluoroacetic acid salt]

Reference: US20090270435A1 (priority 2006, published 2009)
